Source: patent US11447494B2, “Tricyclic amine compounds as CDK2 inhibitors” (Incyte Corporation, priority 2019, dated 2022)

Columns and labels:
[1] = system: CCNE1 amplified COV318 cells; assay: Cell cycle analysis by FACS in COV318 cells after p16 or control siRNA; assay type: cell-based, human; settings: 100 nM, 16 hours
Procedure: To confirm the role of p16 in CDK2-sensitivity of CCNE-amplified cells, COV318 cells were treated with control or p16-specific siRNA.
(§1) Bulk DNA was stained with DAPI. Compound-treated and DMSO treated control cells were acquired with CytoFlex (Beckman Coulter) and were analyzed using the FlowJo software. For cell cycle analysis of cells with siRNA knockdown, 72 hours after siRNA transfection, cells exposed to […] for 3 hours before detection of Click-iT Alexa Fluor® 647 azide kit.

[2] = molecular target: CDK2/Cyclin E1 (Homo sapiens (Human), UniProt P24941); assay: CDK2/Cyclin E1 HTRF enzyme activity assay; assay type: biochemical; settings: 1 mM ATP
Procedure: CDK2/Cyclin E1 enzyme activity assays utilize full-length human CDK2 co-expressed as N-terminal GST-tagged protein with FLAG-Cyclin E1 in a baculovirus expression system (Carna Product Number 04-165). Assays are conducted in white 384-well polystyrene plates in a final reaction volume of 8 μL. CDK2/Cyclin E1 (0.25 nM) is incubated with compounds (40 nL serially diluted in DMSO) in the presence of ATP (50 μM or 1 mM) and 50 nM ULight™-labeled eIF4E-binding protein 1 (THR37/46) peptide (PerkinElmer) in assay buffer (containing 50 mM HEPES pH 7.5, 1 mM EGTA, 10 mM MgCl2, 2 mM DTT, 0.05 mg/mL BSA, and 0.01% Tween 20) for 60 minutes at room temperature. The reactions are stopped by the addition of EDTA and Europium-labeled anti-phospho-4E-BP1 antibody (PerkinElmer), for a final concentration of 15 mM and 1.5 nM, respectively. HTRF signals are read after 1 hour at room temperature on a PHERAstar FS plate reader (BMG Labtech). Data is analyzed with IDBS XLFit and GraphPad Prism 5.0 software using a three or four parameter dose response curve to determine IC50 for each compound.

[3] = system: Rb phosphorylation at S780 in CCNE1-non-amplified cell lines (COV504 and OV56); assay: Western blot of Rb phosphorylation at S780 in CCNE1-non-amplified cell lines; assay type: cell-based, human; settings: 1 or 15 hours, various doses
Procedure: The effect of CDK4/6-inhibition on Rb phosphorylation at S780 in CCNE1-amplified versus CCNE1-non-amplified cell lines was evaluated. […] One or 15 hours after treatment, the cells were harvested and total protein was extracted and analyzed by western blot (FIG. 8).
Whole cell extracts were prepared using RIPA buffer (Thermo Scientific, 89900) with a Halt Protease and Phosphatase Inhibitor Cocktail (Thermo Scientific, 78440). Protein concentration was quantified with a BCA Protein Assay Kit (Thermo Scientific, 23225) and […] of protein lysates were loaded for SDS-PAGE using precast gradient gels (Bio-Rad, Hercules, No. 456-1094). Samples were diluted in 5× Laemmli buffer (300 mM Tris-HCl pH 6.8, 10% SDS (w/v), 5% 2-mercaptoethanol, 25% glycerol (v/v), 0.1% bromophenol blue w/v) and boiled for 5 minutes. […] of proteins were separated by 8-15% SDS-PAGE and transferred onto polyvinylidene fluoride (PVDF) membranes. Unspecific binding sites on the PVDF membranes were blocked with 5% non-fat milk in TBST (20 mM Tris-HCl, pH 7.6, 137 mM NaCl, 1% Tween-20). […] Images were captured by Luminescence/Fluorescence Imaging System Odyssey CLx Imager (LI-COR).

[4] = system: CCNE1-amplified cell lines (COV318, OVCAR3); assay: Cell cycle analysis by FACS in CCNE1-amplified cell lines; assay type: cell-based, human
Procedure: (§2) The effect of CDK4/6-inhibition in CCNE1-amplified versus CCNE1-non-amplified cell lines was evaluated.
(§3) A similar experiment was performed in a larger set of CCNE1-amplified cell lines (COV318 and OVCAR3) and CCNE1-non-amplified cell lines (COV504, OV56, and Igrov1) (FIG. 6).
as §1

[5] = system: CCNE1-non-amplified cell lines (COV504, OV56, Igrov1); assay: Cell cycle analysis by FACS in CCNE1-non-amplified cell lines; assay type: cell-based, human
Procedure: as §2, §3, §1

| IC50 [2] [µM] | SMILES | other results |
| --- | --- | --- |
|  | C[C@@]1(O)CCC[C@H]1n1c(=O)ccc2cnc(NC3CCN(S(C)(=O)=O)CC3)nc21 [Compound A, 8-((1R,2R)-2-hydroxy-2-methylcyclopentyl)-2-((1-(methylsulfonyl)piperidin-4-yl)amino)pyrido[2,3-d]pyrimidin-7(8H)-one] | percentage of S phase cells ([1]; control siRNA-treated cells): significantly decreased; percentage of S phase cells ([1]; p16 knocked down cells, vs DMSO): not significantly decreased |
| ≤ 0.05 | CNS(=O)(=O)c1ccc(Nc2ncc3c(n2)-c2c(nc(C)n2C(C)C)CC3)cc1 [Example 1, 4-((1-Isopropyl-2-methyl-4,5-dihydro-1H-imidazo[4,5-h]quinazolin-8-yl)amino)-N-methylbenzenesulfonamide] |  |
| ≤ 0.05 | Cc1nc2c(n1C)-c1nc(Nc3ccc(S(=O)(=O)N(C)C)cc3)ncc1CC2 [Example 2, 4-((1,2-Dimethyl-4,5-dihydro-1H-imidazo[4,5-h]quinazolin-8-yl)amino)-N,N-dimethylbenzenesulfonamide] |  |
| ≤ 0.05 | Cc1nc2c(n1C)-c1nc(Nc3ccc(S(C)(=O)=O)cc3)ncc1CC2 [Example 3, 1,2-Dimethyl-N-(4-(methylsulfonyl)phenyl)-4,5-dihydro-1H-imidazo[4,5-h]quinazolin-8-amine] |  |
| ≤ 0.05 | CNS(=O)(=O)c1ccc(Nc2ncc3c(n2)-c2c(nc(C)n2C)CC3)cc1 [Example 4, 4-((1,2-Dimethyl-4,5-dihydro-1H-imidazo[4,5-h]quinazolin-8-yl)amino)-N-methylbenzenesulfonamide] |  |
| ≤ 0.05 | CNS(=O)(=O)c1ccc(Nc2ncc3c(n2)-c2c(nc(C)n2C)CC3)c(F)c1 [Example 5, 4-((1,2-Dimethyl-4,5-dihydro-1H-imidazo[4,5-h]quinazolin-8-yl)amino)-3-fluoro-N-methylbenzenesulfonamide] |  |
| ≤ 0.05 | Cc1nc2c(n1C)-c1nc(Nc3ccc(S(=O)(=O)NC(C)C)cc3)ncc1CC2 [Example 6, 4-((1,2-Dimethyl-4,5-dihydro-1H-imidazo[4,5-h]quinazolin-8-yl)amino)-N-isopropylbenzenesulfonamide] |  |
| ≤ 0.05 | Cc1nc2c(n1C)-c1nc(Nc3ccc(S(=O)(=O)NCCO)cc3)ncc1CC2 [Example 7, 4-((1,2-Dimethyl-4,5-dihydro-1H-imidazo[4,5-h]quinazolin-8-yl)amino)-N-(2-hydroxyethyl)benzenesulfonamide] |  |
| ≤ 0.05 | NS(=O)(=O)c1ccc(Nc2ncc3c(n2)-n2ccnc2CC3)cc1 [Example 8, 4-((5,6-Dihydroimidazo[1′,2′:1,6]pyrido[2,3-d]pyrimidin-2-yl)amino)benzenesulfonamide] |  |
| ≤ 0.05 | NS(=O)(=O)c1ccc(Nc2ncc3c(n2)-n2ccnc2CO3)cc1 [Example 9, 4-((6H-Imidazo[1,2-d]pyrimido[5,4-b][1,4]oxazin-2-yl)amino)benzenesulfonamide] |  |
| ≤ 0.05 | Cc1nc2c(n1C)-c1nc(Nc3ccc(S(=O)(=O)NCCN(C)C)cc3F)ncc1CC2 [Example 10, 4-((1,2-Dimethyl-4,5-dihydro-1H-imidazo[4,5-h]quinazolin-8-yl)amino)-N-(2-(dimethylamino)ethyl)-3-fluorobenzenesulfonamide] |  |
| ≤ 0.05 | Cc1nc2c(n1C)-c1nc(Nc3ccc(S(=O)(=O)NCCCN(C)C)cc3F)ncc1CC2 [Example 11, 4-((1,2-Dimethyl-4,5-dihydro-1H-imidazo[4,5-h]quinazolin-8-yl)amino)-N-(3-(dimethylamino)propyl)-3-fluorobenzenesulfonamide] |  |
| ≤ 0.05 | Cc1nc2c(n1C)-c1nc(Nc3ccc(S(=O)(=O)NCC4CCOC4)cc3F)ncc1CC2 (stereo not shown) [Example 12, 4-((1,2-Dimethyl-4,5-dihydro-1H-imidazo[4,5-h]quinazolin-8-yl)amino)-3-fluoro-N-((tetrahydrofuran-3-yl)methyl)benzenesulfonamide] |  |
|  | CC(=O)c1c(C)c2cnc(Nc3ccc(N4CCNCC4)cn3)nc2n(C2CCCC2)c1=O [palbociclib] | Rb phosphorylation at S780 [3]: blocked Rb phosphorylation at S780; percentage of cells at the S phase, compared to DMSO ([4]; COV318 and OVCAR3, 16 hours after treatment): not significantly different; inhibition of proliferation (cell cycle analysis) ([4]; OVCAR3 cells, 16 hours, increasing concentrations): not in CCNE1-amplified cells; percentage of cells at the S phase, compared to DMSO ([5]; COV504, OV56, Igrov1, 16 hours after treatment): decreased in CCNE1-non-amplified cell lines in a dose-dependent fashion; inhibition of proliferation (cell cycle analysis) ([5]; COV504 cells, 16 hours, increasing concentrations): dose-dependent inhibition of the proliferation |
